Holding throughout (format): in vivo
The subject of experiment [1] is growth hormone (GH). Kind of experiment: Arginine-stimulated growth hormone secretion in Nembutal-anesthetized rats, radioimmunoassay of blood. The following applies: for GH: albino male rats; for dose effective for reducing secretion of growth hormone, glucagon, and insulin levels: rats, subcutaneous, summary statement covering GH. Here is the method:
(§1) The biological activity of the products of the preceding preparatory examples were determined by the following procedure:
(§2) Albino male rats were administered Nembutal intraperitoneally at a dose of 50 milligrams per kilogram. Fifteen minutes later a subcutaneous injection of the test compound of physiological saline was administered. Ten minutes later 0.5 milliliters of arginine (300 milligrams per milliliter, pH 7.2) is injected into the heart. Five minutes after receipt of the arginine the rats are decapitated and blood is collected into trasylol-EDTA. An appropriate aliquot was assayed for growth hormone (GH), insulin and glucagon by radio immunoassay.

Experiment [2] has as its system insulin. Kind of experiment: Arginine-stimulated insulin secretion in Nembutal-anesthetized rats, radioimmunoassay of blood. The settings on record: albino male rats. Here is the method: as §1, §2
Experiment [3] deals with glucagon. Put plainly: Arginine-stimulated glucagon secretion in Nembutal-anesthetized rats, radioimmunoassay of blood. The settings on record: for GLUN: albino male rats; for dose with selectivity of action toward glucagon: rats, subcutaneous, summary statement. The method, then: as §1, §2
[4] abbreviates: 200 μg/kg subcutaneous, blood 15 min after compound (5 min after arginine), control 268 ± 46 (Example 2), 407 ± 62 (Example 3).
Setting [5] is: 200 μg/kg subcutaneous, blood 15 min after compound, control 323 ± 28 (Example 2), 271 ± 44 (Example 3).
Where [6] appears, read: 200 μg/kg subcutaneous, blood 15 min after compound, control 379 ± 109 (Example 2), 46 ± 72 (Example 3).

From US4209426A, “Polypeptides related to somatostatin” (American Home Products Corporation, priority 1979, dated 1980) come the findings set out here.

Structures can show the parent of a compound that is named as a salt. Bridge positions count the residues as written; N and C are the ends. Square brackets hold non-standard residues; d marks the D form. Peptide text beside a SMILES is read from it.

In experiment [1] (setting [4]), `C[C@@H](O)[C@@H]1NC(=O)[C@H](Cc2ccccc2)NC(=O)[C@H]([C@@H](C)O)NC(=O)[C@H](CCCCN)NC(=O)[C@@H](Cc2c[nH]c3ccccc23)NC(=O)[C@H](Cc2ccccc2)NC(=O)[C@H](Cc2ccccc2)NC(=O)[C@H](Cc2ccc(O)cc2)NC(=O)[C@H](Cc2c[nH]cn2)NC(=O)[C@@H](N)CSSC[C@@H](C(=O)O)NC(=O)[C@H](CO)NC1=O` [Example 2, L-Cysteinyl-L-histidyl-L-tyrosyl-L-phenylalanyl-L-phenylalanyl-D-tryptophyl-L-lysyl-L-threonyl-L-phenylalanyl-L-threonyl-L-seryl-L-cysteine cyclic (1-12) disulfide diacetate salt] (H-CHYFF[dW]KTFTSC-OH; disulfide 1-12) showed a GH of 68 ± 14 ng/mL. Moreover, the “dose effective for reducing secretion of growth hormone, glucagon, and insulin levels” value in experiment [1] is reported as at most 50 micrograms per kilogram. Also, the INS in experiment [2] (setting [5]) is 254 ± 38 μU/ml. In experiment [3] (setting [6]), this molecule gave a GLUN of 58 ± 24 pg/mL. The “dose with selectivity of action toward glucagon” value in experiment [3] is given as at most 10 micrograms per kilogram.
Consider `C[C@@H](O)[C@@H]1NC(=O)[C@H](Cc2ccccc2)NC(=O)[C@H]([C@@H](C)O)NC(=O)[C@H](CCCCN)NC(=O)[C@@H](Cc2c[nH]c3ccccc23)NC(=O)[C@H](Cc2ccccc2)NC(=O)[C@H](Cc2ccccc2)NC(=O)[C@H](Cc2ccc(O)cc2)NC(=O)[C@H](CCCNC(=N)N)NC(=O)[C@@H](N)CSSC[C@@H](C(=O)O)NC(=O)[C@H](CO)NC1=O` [Example 3, L-Cysteinyl-L-arginyl-L-tyrosyl-L-phenylalanyl-L-phenylalanyl-D-tryptophyl-L-lysyl-L-threonyl-L-phenylalanyl-L-threonyl-L-seryl-L-cysteine cyclic (1-12) disulfide triacetate salt] (H-CRYFF[dW]KTFTSC-OH; disulfide 1-12), for which the GH in experiment [1] (10 μg/kg subcutaneous, control 335 ± 33) was 207 ± 29 ng/mL; in experiment [1] (50 μg/kg subcutaneous, control 202 ± 11), 80 ± 16 ng/mL; in experiment [1] (setting [4]), 101 ± 24 ng/mL. The “dose effective for reducing secretion of growth hormone, glucagon, and insulin levels” value in experiment [1] is at most 50 micrograms per kilogram. The INS in experiment [2] (10 μg/kg subcutaneous, control 309 ± 31) amounted to 278 ± 36 μU/ml; in experiment [2] (50 μg/kg subcutaneous, control 238 ± 23), 85 ±14 μU/ml; in experiment [2] (setting [5]) it was 59 ± 16 μU/ml. In addition, the GLUN in experiment [3] (10 μg/kg subcutaneous, control 52 ± 10) turned out to be 12 ± 4 pg/mL; in experiment [3] (50 μg/kg subcutaneous, control 86 ± 6), 12 ± 4 pg/mL; in experiment [3] (setting [6]), 13 ± 3 pg/mL. Moreover, in experiment [3], the “dose with selectivity of action toward glucagon” value is at most 10 micrograms per kilogram.
